According to patent US6043246A, “Urea derivatives” (Banyu Pharmaceutical Co., Ltd., priority 1996, dated 2000):

Target: T1, human NPY Y5 receptor (Homo sapiens, UniProt Q15761)
T1 construct: expressed in transfected cells; host or cells: COS-7, CHO and LM(tk-) cells (ATCC); vectors pcDNA3, pRc/RSV, pCI-neo; membrane preparations
T1 sequence (Q15761 1-445): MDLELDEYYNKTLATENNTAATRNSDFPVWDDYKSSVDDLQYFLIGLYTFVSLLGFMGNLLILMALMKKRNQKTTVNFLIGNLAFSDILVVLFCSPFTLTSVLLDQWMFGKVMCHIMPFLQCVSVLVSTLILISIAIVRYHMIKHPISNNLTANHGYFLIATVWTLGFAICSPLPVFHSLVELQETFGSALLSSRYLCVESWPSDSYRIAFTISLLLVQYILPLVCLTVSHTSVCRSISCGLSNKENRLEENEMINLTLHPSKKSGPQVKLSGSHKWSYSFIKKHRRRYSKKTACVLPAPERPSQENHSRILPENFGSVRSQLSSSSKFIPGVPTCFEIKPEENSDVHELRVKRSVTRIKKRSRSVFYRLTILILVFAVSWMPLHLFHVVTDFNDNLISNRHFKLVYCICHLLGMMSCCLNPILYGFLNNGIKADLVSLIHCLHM
Assay: Test of Inhibition of NPY Binding ([125I] peptide YY binding to membrane preparations)
Details: membranes of cells expressing NPY Y5 receptor, 25° C., 2 hours, read-out: concentration needed to inhibit 50% of the specific binding of peptide YY (IC50 value)
Text: cDNA Sequence encoding a human NPY Y5 receptor [International Publication WO 96/16542] was cloned into expression vectors pcDNA3, pRc/RSV (manufactured by Invitrogen) and pCI-neo (manufactured by Promega). Using the cationic lipid method [see Proceedings of the National Academy of Science of the United States of America, vol.84, p.7413 (1987)], host cells COS-7, CHO and LM(tk-) (American Type Culture Collection) were transfected with the thus prepared expression vectors to obtain cells in which the NPY Y5 receptor had been expressed.
Each of the membrane preparations thus prepared from the cells in which the NPY Y5 receptor had been expressed was incubated together with each compound to be tested and 20,000 cpm of [^125 I] peptide YY (manufactured by Amersham) at 25° C. for 2 hours in an assay buffer solution (25 mM HEPES buffer, pH 7.4, containing 10 mM magnesium chloride, 1 mM phenylmethylsulfonyl fluoride and 0.1% bacitracin) and then, the reaction mixture was filtered through a glass filter GF/C. After washing with 50 mM Tris buffer, pH 7.4, containing 0.3% BSA, radioactivity on the glass filter was measured using a gamma counter. […] As the result, IC50 value of the compound of Example 17 was calculated to be […].

- IC50: 27 nM
SMILES: COc1ccc(-c2cc(NC(=O)N3CCN(c4cccc(Cl)c4)CC3)[nH]n2)cc1 [Example 17, 3-[4-(3-chlorophenyl)piperazinyl]carbonylamino-5-(4-methoxyphenyl)pyrazole]
